Results published in publication PMC7709957 (2020).

Tested on: F. ulcerans ZTP riboswitch (pfl RNA, 75-nt aptamer domain, crystal construct) (RNA, riboswitch) UAUCAGUUAUAUGACUGACGGAACGUGGAAUUAACCACAUGAAGUAUAACGAUGACAAUGCCGACCGUCUGGGCG
Experiment: ITC
Details: 150 mM KCl, 10 mM MgCl2, 50 mM Hepes-KOH pH 7.4, 37 °C

Compound | Kd | Kd (3% DMSO)
NC(=O)c1nc[nH]c1N | 41000 ± 4000 nM | –
NC(=O)c1ncn(-c2ccccn2)c1N | 5600 ± 3200 nM | –
NC(=O)c1ncn(-c2cccnc2)c1N | – | 600 ± 60 nM
NC(=O)c1ncn([C@@H]2O[C@H](CO)[C@@H](O)[C@H]2O)c1N | 2300 ± 600 nM | –
NC(=O)c1ncn([C@@H]2O[C@H](COP(=O)(O)O)[C@@H](O)[C@H]2O)c1N | 320 ± 130 nM | –
